According to patent US20250230165A1, “HETEROCYCLIC COMPOUNDS FOR USE IN THE TREATMENT OF CANCER” (ARTIOS PHARMA LIMITED, priority 2021, published 2025):

Molecular target: T1, Human Polθ polymerase domain (aa1820-2590) (Homo sapiens, UniProt O75417)
T1 construct: Human Polθ polymerase domain (aa1820-2590) was expressed in E. coli; made in house; host or cells: E. coli
T1 sequence (O75417 1820-2590): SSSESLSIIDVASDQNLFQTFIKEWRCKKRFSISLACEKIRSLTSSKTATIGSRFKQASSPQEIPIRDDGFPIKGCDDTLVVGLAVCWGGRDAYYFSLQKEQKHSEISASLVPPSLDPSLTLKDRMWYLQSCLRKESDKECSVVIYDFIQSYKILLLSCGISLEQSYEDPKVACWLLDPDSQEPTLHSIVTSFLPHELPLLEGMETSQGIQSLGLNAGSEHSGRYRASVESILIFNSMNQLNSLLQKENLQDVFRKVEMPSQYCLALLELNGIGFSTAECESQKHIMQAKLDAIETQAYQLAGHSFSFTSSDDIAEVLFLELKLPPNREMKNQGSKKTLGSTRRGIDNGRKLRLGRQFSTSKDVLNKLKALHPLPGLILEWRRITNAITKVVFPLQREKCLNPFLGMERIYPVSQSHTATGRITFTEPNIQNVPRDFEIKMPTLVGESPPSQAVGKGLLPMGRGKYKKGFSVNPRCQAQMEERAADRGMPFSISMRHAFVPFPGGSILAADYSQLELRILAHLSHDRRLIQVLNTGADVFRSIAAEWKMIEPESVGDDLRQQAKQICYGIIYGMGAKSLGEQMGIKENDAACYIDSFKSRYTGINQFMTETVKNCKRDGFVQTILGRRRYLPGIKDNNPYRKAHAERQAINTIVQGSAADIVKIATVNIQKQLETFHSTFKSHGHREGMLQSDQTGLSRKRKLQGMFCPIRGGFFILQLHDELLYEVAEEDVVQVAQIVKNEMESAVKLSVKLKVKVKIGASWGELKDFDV
Test: Polθ Polymerase Domain Kinact/KI Assay (PicoGreen)
Format: biochemical
Conditions: 0.8 nM Polθ, 100 nM DNA substrate, kobs vs [I] fit for 2-step covalent inhibitor
Outline: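 Kinact and KI derive from fitting kobs versus [I], where kobs were fitted from EDTA-stopped PicoGreen time courses (up to 60 min) in Tris pH 7.5 buffer with 1% DMSO, 0.8 nM enzyme, 100 nM DNA and […].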

Kinact/Kl [M⁻¹ s⁻¹]	SMILES
1.02e+06	Cc1cc(C(F)(F)F)cc(N2C(=O)C[C@@H]3CN(Cc4cc(F)c(NC(=O)/C=C/CN(C)C)c(F)c4)c4c(Cl)cccc4N(C)C(=O)[C@H]32)n1 [Example 309, (E)-N-(4-(((3aR,11aS)-6-chloro-10-methyl-1-(6-methyl-4-(trifluoromethyl)pyridin-2-yl)-2,11-dioxo-1,2,3,3a,4,10,11,11a-octahydro-5H-benzo[b]pyrrolo[2,3-f][1,4]diazocin-5-yl)methyl)-2,6-difluorophenyl)-4-(dimethylamino)but-2-enamide]
1.85e+06	C=CC(=O)N1Cc2cc(CN3C[C@H]4CC(=O)N(c5cc(C(F)(F)F)cc(C)n5)[C@@H]4C(=O)N(C)c4cccc(C)c43)cnc2C1 [Example 312, (3aR,11aS)-5-((6-acryloyl-6,7-dihydro-5H-pyr-rolo[3,4-b]pyridin-3-yl)methyl)-6,10-dimethyl-1-(6-methyl-4-(trifluoro-methyl)pyridin-2-yl)-1,3a,4,5,10, 11a-hexahydro-2H-benzo[b]pyrrolo [2,3-f][1,4]diazo-cine-2,11(3H)-dione]
660000	C=CC(=O)N1Cc2ccc(CN3C[C@H]4CC(=O)N(c5cc(C(F)(F)F)cc(C)n5)[C@@H]4C(=O)N(C)c4cccc(C)c43)cc2C1 [Example 313, (3aR,11aS)-5-((2-acryloylisoindolin-5-yl)methyl)-6,10-dimethyl-1-(6-meth-yl-4-(trifluorometh-yl)pyridin-2-yl)-1,3a,4,5,10,11a-hexahydro-2H-benzo [b]pyrrolo[2,3-f] [1,4]diazocine-2,11(3H)-dione]
1.74e+06	C=CC(=O)N1Cc2nc(CN3C[C@H]4CC(=O)N(c5cc(C(F)(F)F)cc(C)n5)[C@@H]4C(=O)N(C)c4cccc(C)c43)n(CC)c2C1 [Example 314, (3aR,11aS)-5-((5-acryloyl-1-ethyl-1,4,5,6-tetrahydro-pyrrolo[3,4-d]imid-azol-2-yl)methyl)-6,10-dimethyl-1-(6-methyl-4-(trifluoro-methyl)pyridin-2-yl)-1,3a,4,5,10,11a-hexahydro-2H-benzo[b]pyrrolo [2,3-f][1,4]diazo-cine-2,11(3H)-dione]
1.79e+06	C=CC(=O)N1Cc2nc(CN3C[C@H]4CC(=O)N(c5cc(C(F)(F)F)cc(C)n5)[C@@H]4C(=O)N(C)c4cccc(C)c43)sc2C1 [Example 315, (3aR,11aS)-5-((5-acryloyl-5,6-di-hydro-4H-pyrrolo [3,4-d]thiazol-2-yl)-methyl)-6,10-dimeth-yl-1-(6-methyl-4-(trifluoromethyl)-pyridin-2-yl)-1,3a,4,5,10,11a-hexahydro-2H-benzo[b]pyrrolo [2,3-f][1,4]diazocine-2,11(3H)-dione]
610000	C=CC(=O)N1Cc2nc(CN3C[C@H]4CC(=O)N(c5cc(C(F)(F)F)cc(C)n5)[C@@H]4C(=O)N(C)c4cccc(C)c43)oc2C1 [Example 316, (3aR,11aS)-5-((5-acryloyl-5,6-di-hydro-4H-pyrrolo [3,4-d]oxazol-2-yl)-methyl)-6,10-dimethyl-1-(6-meth-yl-4-(trifluorometh-yl)pyridin-2-yl)-1,3a,4,5,10,11a-hexahydro-2H-benzo[b]pyrrolo [2,3-f][1,4]diazo-cine-2,11(3H)-dione]
230000	C=CC(=O)N1Cc2c(CN3C[C@H]4CC(=O)N(c5cc(C(F)(F)F)cc(C)n5)[C@@H]4C(=O)N(C)c4cccc(C)c43)nn(C)c2C1 [Example 317, (3aR,11aS)-5-((5-acryloyl-1-methyl-1,4,5,6-tetrahydro-pyrrolo[3,4-c]pyr-azol-3-yl)methyl)-6,10-dimethyl-1-(6-methyl-4-(trifluoro-methyl)pyridin-2-yl)-1,3a,4,5,10,11a-hexahydro-2H-benzo[b]pyrrolo [2,3-f][1,4]diazo-cine-2,11(3H)-dione]

More lines, now with the values behind:

SMILES	Kinact/Kl [M⁻¹ s⁻¹]
C=C(CN(C)C)C(=O)N1CC(CC(F)CCN2C[C@H]3CC(=O)N(c4cc(C(F)(F)F)cc(C)n4)[C@@H]3C(=O)N(C)c3cccc(Cl)c32)C1 (stereo partly drawn) [Example 301, (3aR,11aS)-6-chloro-5-(4-(1-(2-((dimethylamino)methyl)acryloyl)azetidin-3-yl)-3-fluorobutyl)-10-methyl-1-(6-methyl-4-(trifluoromethyl)pyridin-2-yl)-1,3a,4,5,10,11a-hexahydro-2H-benzo[b]pyrrolo[2,3-f][1,4]diazocine-2,11(3H)-dione]	1.78e+06
C=C(CN(C)C)C(=O)N1CC(CCC(F)CN2C[C@H]3CC(=O)N(c4cc(C(F)(F)F)cc(C)n4)[C@@H]3C(=O)N(C)c3cccc(Cl)c32)C1 (stereo partly drawn) [Example 302, (3aR,11aS)-6-chloro-5-(4-(1-(2-((dimethylamino)methyl)acryloyl)azetidin-3-yl)-2-fluorobutyl)-10-methyl-1-(6-methyl-4-(trifluoromethyl)pyridin-2-yl)-1,3a,4,5,10,11a-hexahydro-2H-benzo[b]pyrrolo[2,3-f][1,4]diazocine-2,11(3H)-dione]	3.04e+06
C#CC(=O)N1CC(F)(COCCN2C[C@H]3CC(=O)N(c4cc(C(F)(F)F)cc(C)n4)[C@@H]3C(=O)N(C)c3cccc(Cl)c32)C1 [Example 303, (3aR,11aS)-6-chloro-5-(2-((3-fluoro-1-propioloylazetidin-3-yl)methoxy)ethyl)-10-methyl-1-(6-methyl-4-(trifluoromethyl)pyridin-2-yl)-1,3a,4,5,10,11a-hexahydro-2H-benzo[b]pyrrolo[2,3-f][1,4]diazocine-2,11(3H)-dione]	1.8e+06
Cc1cc(C(F)(F)F)cc(N2C(=O)C[C@@H]3CN(CCOCC4(F)CN(C(=O)/C=C/CN(C)C)C4)c4c(Cl)cccc4N(C)C(=O)[C@H]32)n1 [Example 304, (3aR,11aS)-6-chloro-5-(2-((1-((E)-4-(dimethylamino)but-2-enoyl)-3-fluoroazetidin-3-yl)methoxy)ethyl)-10-methyl-1-(6-methyl-4-(trifluoromethyl)pyridin-2-yl)-1,3a,4,5,10,11a-hexahydro-2H-benzo[b]pyrrolo[2,3-f][1,4]diazocine-2,11(3H)-dione]	1.87e+06
C=C(CN(C)C)C(=O)N1CC(F)(COCCN2C[C@H]3CC(=O)N(c4cc(C(F)(F)F)cc(C)n4)[C@@H]3C(=O)N(C)c3cccc(Cl)c32)C1 [Example 305, (3aR,11aS)-6-chloro-5-(2-((1-(2-((dimethylamino)methyl)acryloyl)-3-fluoroazetidin-3-yl)methoxy)ethyl)-10-methyl-1-(6-methyl-4-(trifluoromethyl)pyridin-2-yl)-1,3a,4,5,10,11a-hexahydro-2H-benzo[b]pyrrolo[2,3-f][1,4]diazocine-2,11(3H)-dione]	1.82e+06
Cc1cc(C(F)(F)F)cc(N2C(=O)C[C@@H]3CN(Cc4cn5c(n4)CN(C(=O)/C=C/C(F)F)CC5)c4c(Cl)cccc4N(C)C(=O)[C@H]32)n1 [Example 306, (3aR,11aS)-6-chloro-5-((7-((E)-4,4-difluorobut-2-enoyl)-5,6,7,8-tetrahydroimidazo[1,2-a]pyrazin-2-yl)methyl)-10-methyl-1-(6-methyl-4-(trifluoromethyl)pyridin-2-yl)-1,3a,4,5,10,11a-hexahydro-2H-benzo[b]pyrrolo[2,3-f][1,4]diazocine-2,11(3H)-dione]	1.54e+06
Cc1cc(C(F)(F)F)cc(N2C(=O)C[C@@H]3CN(Cc4cn5c(n4)CN(C(=O)/C=C/C(F)(F)F)CC5)c4c(Cl)cccc4N(C)C(=O)[C@H]32)n1 [Example 307, (3aR,11aS)-6-chloro-10-methyl-1-(6-methyl-4-(trifluoromethyl)pyridin-2-yl)-5-((7-((E)-4,4,4-trifluorobut-2-enoyl)-5,6,7,8-tetrahydroimidazo[1,2-a]pyrazin-2-yl)methyl)-1,3a,4,5,10,11a-hexahydro-2H-benzo[b]pyrrolo[2,3-f][1,4]diazocine-2,11(3H)-dione]	1.35e+06
Cc1cc(C(F)(F)F)cc(N2C(=O)C[C@@H]3CN(Cc4ccc5c(c4)OCCN5C(=O)/C=C/CN(C)C)c4c(Cl)cccc4N(C)C(=O)[C@H]32)n1 [Example 308, (3aR,11aS)-6-chloro-5-((4-((E)-4-(dimethylamino)but-2-enoyl)-3,4-dihydro-2H-benzo[b][1,4]oxazin-7-yl)methyl)-10-methyl-1-(6-methyl-4-(trifluoromethyl)pyridin-2-yl)-1,3a,4,5,10,11a-hexahydro-2H-benzo[b]pyrrolo[2,3-f][1,4]diazocine-2,11(3H)-dione]	280000
